In BindingDB's records for doi:10.7270/Q2TX3CTT (Broad Institute, 2010):
pEC50: −log10 of the molar value. Where a name gives a salt, the structure may show the parent alone.

Each molecule was assayed against Glycogen synthase kinase-3 beta (Homo sapiens, UniProt P49841) (assay: concentration-response blocking of human GSK3B – biochemical, luminescence, cell-free homogeneous, retest, dose response (AID 434954)).
Chain of Glycogen synthase kinase-3 beta (P49841 whole entry): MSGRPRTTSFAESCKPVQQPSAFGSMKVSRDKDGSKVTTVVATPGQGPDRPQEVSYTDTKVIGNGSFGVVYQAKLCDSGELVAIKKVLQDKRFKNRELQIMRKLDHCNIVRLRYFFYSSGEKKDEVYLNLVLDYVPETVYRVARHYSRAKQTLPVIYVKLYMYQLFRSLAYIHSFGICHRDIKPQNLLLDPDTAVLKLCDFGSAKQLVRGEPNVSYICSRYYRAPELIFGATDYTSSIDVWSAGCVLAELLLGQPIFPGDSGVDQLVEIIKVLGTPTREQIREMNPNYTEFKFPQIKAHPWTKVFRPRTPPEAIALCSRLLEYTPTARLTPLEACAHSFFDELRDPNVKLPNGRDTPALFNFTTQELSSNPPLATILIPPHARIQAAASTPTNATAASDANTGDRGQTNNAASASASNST
Molecule `CN(C)Cc1c(C(=O)NN=Cc2ccccc2OCc2c(F)cccc2Cl)nnn1-c1nonc1N` [1-(4-azanyl-1,2,5-oxadiazol-3-yl)-N-[[2-[(2-chloranyl-6-fluoranyl-phenyl)methoxy]phenyl]methylideneamino]-5-[(dimethylamino)methyl]-1,2,3-triazole-4-carboxamide] has a pEC50 of 6.94. With `Cc1cccc(COc2ccc(C=NNC(=O)c3nnn(-c4nonc4N)c3CN3CCCCC3)cc2)c1` [SMR000646486] the pEC50 was less than 3.52. `COc1cc(CN=Nc2nc(Nc3ccccc3)nc(N3CCCCC3)n2)ccc1OCC(=O)O` [SMR000312683] showed a pEC50 of less than 3.52. Molecule `O=C(/[O+]=N/[CH-]c1ccc(N2CCCCC2)c([N+](=O)[O-])c1)c1cccc(Cl)c1` [[(3-nitro-4-piperidin-1-yl-phenyl)methylideneamino] 3-chloranylbenzoate] has a pEC50 of less than 3.52. `O=C(/C=C/c1ccc2ccccc2c1)c1ccoc1` [SMR000179251] gave a pEC50 of less than 3.52. `COc1cccc(CNS(=O)(=O)c2cc(CN3C(=O)c4cccnc4C3=O)ccc2OC)c1` [SMR000630004] gave a pEC50 of less than 3.52. `COc1ccc2c(c1)C(=O)Nc1cc(Cl)ccc1N2` [8-chloro-2-methoxy-5,10-dihydro-11H-dibenzo[b,e][1,4]diazepin-11-one] was tested, and the pEC50 was less than 3.52. For `O=C(O)c1ccccc1Nc1ccc([N+](=O)[O-])cc1`, the pEC50 was less than 3.52. Work on `CN1CCc2c(sc3c2c(=O)n(-c2cccc(Cl)c2)c2nncn32)C1` [MLS000084041] yielded a pEC50 of less than 3.52. With `Cc1ccccc1NC(=O)Nc1ccccn1` [1-(2-methylphenyl)-3-pyridin-2-ylurea] the pEC50 was less than 3.52. `CC(C)Nc1nc(N=C(N)S)nc(NC(C)C)n1` was tested, and the pEC50 was less than 3.52. `CC(C)OCCCNC(=O)c1ccc(CS(=O)(=O)Cc2ccccc2F)o1` [5-[(2-fluorophenyl)methylsulfonylmethyl]-N-(3-propan-2-yloxypropyl)furan-2-carboxamide] gave a pEC50 of less than 3.52. `CCn1nc(NC(=O)C2CCCO2)c2cc3cc(C)ccc3nc21` (centres undefined) [N-(1-ethyl-6-methyl-pyrazolo[3,4-b]quinolin-3-yl)oxolane-2-carboxamide] showed a pEC50 of less than 3.52. `O=C(COc1ccccc1[N+](=O)[O-])NN=Cc1ccc(OC(=O)c2ccco2)cc1` [4-((E)-{2-[2-(2-nitrophenoxy)acetyl]hydrazono}methyl)phenyl 2-furoate] showed a pEC50 of 4.83. `COc1cccc(-c2nc(SCC(=O)Nc3nc(-c4ccccc4)c(C)s3)[nH]c(=O)c2C#N)c1` showed a pEC50 of less than 3.52. Work on `CCc1ccc(NC(=O)C(NS(=O)(=O)c2cccc3nsnc23)c2ccccc2)cc1` (centres undefined) [2-(2,1,3-benzothiadiazol-4-ylsulfonylamino)-N-(4-ethylphenyl)-2-phenyl-ethanamide] yielded a pEC50 of less than 3.52. Work on `CN(C)C=NC(=O)C(C#N)C1=Nc2ccccc2CC1` (centres undefined) yielded a pEC50 of 4.70. Molecule `O=C(NCc1ccco1)C(=O)c1cn(CC(=O)N2CCCC2)c2ccccc12` [N-(furan-2-ylmethyl)-2-oxidanylidene-2-[1-(2-oxidanylidene-2-pyrrolidin-1-yl-ethyl)indol-3-yl]ethanamide] has a pEC50 of less than 3.52. `COc1ccc2occ(C(=O)c3ccc(N=C(C)N(C)C)cc3)c2c1` [SMR000104711] gave a pEC50 of 4.66. `COCCn1c(SCC(=O)Nc2cccc(S(N)(=O)=O)c2)nc2ccccc21` [2-[1-(2-methoxyethyl)benzimidazol-2-yl]sulfanyl-N-(3-sulfamoylphenyl)ethanamide] showed a pEC50 of less than 3.52. Work on `CCOc1cc(C2c3c(n[nH]c3C)C(=O)N2c2ccc(Br)cc2)ccc1O` (centres undefined) [SMR000059772] yielded a pEC50 of less than 3.52. In the case of `CCN1CCN(c2c(C(=O)c3ccc(OC)cc3)cnc3ccccc23)CC1` [[4-(4-ethylpiperazin-1-yl)quinolin-3-yl](4-methoxyphenyl)methanone], the pEC50 was less than 3.52. `Cc1ccc(N2CC(C(=O)Nc3c4c(nn3C(C)(C)C)CS(=O)(=O)C4)CC2=O)cc1` (centres undefined) [N-[2-tert-butyl-5,5-bis(oxidanylidene)-4,6-dihydrothieno[3,4-c]pyrazol-3-yl]-1-(4-methylphenyl)-5-oxidanylidene-pyrrolidine-3-carboxamide] was tested, and the pEC50 was less than 3.52. `Cc1cc(NC(=O)CSc2nnc(C3CC3)n2Cc2ccccc2)no1` [MLS000566701] gave a pEC50 of less than 3.52. `CC(CC(=O)N1CCN(c2cccc(Cl)c2)CC1)S(=O)(=O)c1ccc2c(c1)NC(=O)CO2` (centres undefined) [6-[4-[4-(3-chlorophenyl)piperazin-1-yl]-4-oxobutan-2-yl]sulfonyl-4H-1,4-benzoxazin-3-one] gave a pEC50 of less than 3.52. Work on `Cc1c(NC(=O)C(C)OC(=O)COc2ccccc2)c(=O)n(-c2ccccc2)n1C` (centres undefined) [[1-[(1,5-dimethyl-3-oxidanylidene-2-phenyl-pyrazol-4-yl)amino]-1-oxidanylidene-propan-2-yl] 2-phenoxyethanoate] yielded a pEC50 of less than 3.52. `Nc1nc(NCCCN2CCOCC2)nc(Nc2ccc(F)cc2)c1[N+](=O)[O-]` [4-N-(4-fluorophenyl)-2-N-(3-morpholin-4-ylpropyl)-5-nitropyrimidine-2,4,6-triamine] showed a pEC50 of less than 3.52. Work on `Cc1[nH][nH]c(=O)c1N=Nc1ccccc1C#N` [2-[2-(3-methyl-5-oxopyrazol-4-yl)hydrazinyl]benzonitrile] yielded a pEC50 of 4.80. `Cc1ccc(OCCn2c(S)nc3c(N)ncnc32)cc1` [MLS000765129] showed a pEC50 of less than 3.52. `Fc1cccc(CN=Nc2ncnc3nc[nH]c23)c1` gave a pEC50 of 4.93. With `Cn1nc(-c2ccc(Cl)cc2)nc2c(=O)n(C)c(=O)nc1-2` [3-(4-Chloro-phenyl)-1,6-dimethyl-1H-pyrimido[5,4-e][1,2,4]triazine-5,7-dione] the pEC50 was 4.62. In the case of `O=C(O)CCn1cc(C(=O)O)c(-c2ccccc2)n1` [1-(2-carboxyethyl)-3-phenyl-4-pyrazolecarboxylic acid], the pEC50 was less than 3.52. `Cc1ccc(NC(=O)CSc2nccn2C)cc1F` [N-(3-fluoro-4-methylphenyl)-2-[(1-methyl-2-imidazolyl)thio]acetamide] showed a pEC50 of less than 3.52. `CN=C(NC#N)SCC(=O)c1ccc(Cl)cc1Cl` [[2-(2,4-dichlorophenyl)-2-oxidanylidene-ethyl] N-cyano-N'-methyl-carbamimidothioate] gave a pEC50 of 5.50. `COc1ccc(C(C)=NNC(=O)CNC(=O)Cc2ccccc2)c(OC)c1` [N-[2-[2-[1-(2,4-dimethoxyphenyl)ethylidene]hydrazinyl]-2-oxoethyl]-2-phenylacetamide] was tested, and the pEC50 was less than 3.52. With `Nc1nc(O)c(N=Nc2ccc(S(N)(=O)=O)cc2)c(=O)[nH]1` [SMR000543013] the pEC50 was less than 3.52. With `Cn1nnnc1Sc1c(Cl)cccc1[N+](=O)[O-]` [5-({2-chloro-6-nitrophenyl}sulfanyl)-1-methyl-1H-tetraazole] the pEC50 was less than 3.52. `C=CCOC(=O)C1C(C)=Nc2ncnn2C1c1cccs1` (centres undefined) showed a pEC50 of less than 3.52. Work on `Cc1ccc(C)c(CSc2nnc(-c3cccnc3)o2)c1` [MLS000074430] yielded a pEC50 of less than 3.52. `CC1=Nc2nnnn2C(c2sccc2C)C1C(N)=O` (centres undefined) [MLS000528936] gave a pEC50 of less than 3.52. `COc1cc(/C=N/NC(=O)c2ccc3ccccc3c2)ccc1Oc1ccc([N+](=O)[O-])cn1` [N-[[3-methoxy-4-(5-nitropyridin-2-yl)oxy-phenyl]methylideneamino]naphthalene-2-carboxamide] showed a pEC50 of less than 3.52. `COc1ccc(-c2ccc3c(N)c(C(=O)c4cccc(OC)c4)sc3n2)cc1` [SMR000160395] gave a pEC50 of less than 3.52. For `CCC(Sc1ccc2nnc(-c3ccc(F)cc3)n2n1)C(=O)OC` (centres undefined) [MLS000093330], the pEC50 was 4.70. In the case of `N#Cc1c(-c2ccccc2)nc(-c2ccccc2)[nH]c1=O` [SMR000168447], the pEC50 was less than 3.52. `O=c1cc(-c2ccccc2Cl)oc2c(Br)ccc(O)c12` [8-bromo-2-(2-chlorophenyl)-5-hydroxy-1-benzopyran-4-one] was tested, and the pEC50 was less than 3.52. For `COC(=O)c1cc(S(=O)(=O)N2CCCC(C)C2)c[nH]1` (centres undefined), the pEC50 was less than 3.52. `CNc1nc(N)c(C(=O)C(C)(C)C)s1` [MLS000050680] showed a pEC50 of less than 3.52. For `CCCCc1cc(=O)oc2cc(C)cc(OCc3nn[nH]n3)c12` [MLS000041678], the pEC50 was less than 3.52. Molecule `CCN1/C(=C/c2ccc3cccc(C)c3[n+]2CC)Sc2ccccc21` [(2Z)-3-ethyl-2-[(1-ethyl-8-methyl-2-quinolin-1-iumyl)methylidene]-1,3-benzothiazole;iodide] has a pEC50 of less than 3.52. With `CC(C)OCCCN1CN(S(=O)(=O)c2cccc(Cl)c2)c2nc3ccccc3nc21` [1-(3-Chloro-benzenesulfonyl)-3-(3-isopropoxy-propyl)-2,3-dihydro-1H-imidazo[4,5-b]quinoxaline] the pEC50 was less than 3.52. In the case of `CN(C)CCCNc1nc(N)c([N+](=O)[O-])c(NC2CCCCC2)n1` [MLS001213448], the pEC50 was 5.50. With `COC(=O)CSc1ncnc2c1sc1nc(N3CCOCC3)c3c(c12)CCCC3` [MLS000535174] the pEC50 was less than 3.52. Molecule `CC1CCCC(NC(=O)C2CCN(C(=O)Nc3ccccc3)CC2)C1C` (centres undefined) [N4-(2,3-dimethylcyclohexyl)-N1-phenyl-piperidine-1,4-dicarboxamide] has a pEC50 of less than 3.52. In the case of `Cc1cnc(NC(=O)c2sc(Nc3ccccc3)nc2N)o1` [MLS000762724], the pEC50 was 5.02. In the case of `Nn1c(-c2cccs2)nc2sc3c(c2c1=O)CCCC3` [3-azanyl-2-thiophen-2-yl-5,6,7,8-tetrahydro-[1]benzothiolo[2,3-d]pyrimidin-4-one], the pEC50 was less than 3.52. `CCc1ccc(CNC(=O)C2CCC(=O)N(CCc3ccc(Cl)cc3)C2)nc1` (centres undefined) [1-[2-(4-chlorophenyl)ethyl]-N-[(5-ethyl-2-pyridinyl)methyl]-6-oxo-3-piperidinecarboxamide] was tested, and the pEC50 was less than 3.52. `COc1ccc(-c2nn(-c3ccccc3)cc2C=NNC(N)=S)cc1OC` [[[3-(3,4-dimethoxyphenyl)-1-phenyl-4-pyrazolyl]methylideneamino]thiourea] showed a pEC50 of less than 3.52. Molecule `Cc1ccc(Sc2ccc(CN=O)cc2[N+](=O)[O-])cc1` [4-[(4-methylphenyl)thio]-3-nitrobenzaldehyde oxime] has a pEC50 of 4.29. Work on `CSc1nc(SCC(N)=O)c2c3c(sc2n1)CN(C)CC3` yielded a pEC50 of 5.29. In the case of `Nc1nonc1-n1nnc(C(=O)NN=Cc2ccc(OCc3ccccc3)cc2)c1CN1CCCCC1` [MLS001075115], the pEC50 was 5.05. With `Cc1ccc2c(c1)C1CN(C)CCC1N2C(=O)Nc1cccc(Cl)c1` (centres undefined) [MLS000565326] the pEC50 was less than 3.52. Molecule `Cc1c(CN(C)C)c2c(n1C)C(=O)c1ccc(Br)cc1-2` [7-bromo-1-[(dimethylamino)methyl]-2,3-dimethyl-4-indeno[2,3-b]pyrrolone;hydrochloride] has a pEC50 of 4.75. `O=C(Nc1ccccc1)Nc1cnccn1` [MLS001229949] gave a pEC50 of less than 3.52. `CN(C)Cc1c(O)ccc2c1O/C(=C\C=C\c1ccccc1)C2=O` [7-Dimethylaminomethyl-6-hydroxy-2-[(E)-3-phenyl-prop-2-en-(Z)-ylidene]-benzofuran-3-one] was tested, and the pEC50 was 4.50.
